Test: Pharmacokinetics, metabolite profiles and excretion of [14C]-PIC1-dPEG24 after single IV dose
Type: in vivo, rat
Protocol: […]. The six rats in Group 3 and Group 4 were further divided into two subgroups for serial blood collections at 10, 30 min and 1, 2, 3, 4, 6, 8, 24, and 48 hr. Blood was pooled by equal volume across animals at each time point, and aliquots (˜200 μL) of pooled blood were removed at each time point for total radioactivity, and the rest of blood samples were centrifuged to obtain plasma. Bile, urine, feces, and cage wash samples were collected up to 72 hr in bile duct cannulated (BDC) rats, and up to 168 hr in intact rats, and terminal blood samples were collected at the end of study (72 hr or 168 hr post-doses). The total radioactivity concentrations in the excreta, blood and plasma were determined by homogenization, combustion and/or liquid scintillation counting (LSC). The metabolite profiles and structure characterization were conducted in pooled plasma, urine, and bile samples using LC-UV/MS as well as radioactive detection. […].
The radioactive profiles of rat plasma samples for the low dose group and the high dose group were qualitatively similar.

## CC[C@H](C)[C@H](N)C(=O)N[C@@H](C)C(=O)N[C@@H](CC(C)C)C(=O)N[C@H](C(=O)N[C@@H](CC(C)C)C(=O)N[C@@H](CCC(=O)O)C(=O)N1CCC[C@H]1C(=O)N[C@H](C(=O)N[C@@H](CS)C(=O)N[C@@H](CS)C(=O)N[C@@H](CCC(N)=O)C(=O)N[C@@H](CCC(=O)O)C(=O)N[C@@H](CCCNC(=N)N)C(=O)N[C@@H](C)C(=O)N[C@@H](C)C(=O)NCCOCCOCCOCCOCCOCCOCCOCCOCCOCCOCCOCCOCCOCCOCCOCCOCCOCCOCCOCCOCCOCCOCCOCCOCCC(=O)O)[C@@H](C)CC)[C@@H](C)CC [[^14C]-PIC1-dPEG24]
20 and 200 mg/kg dose
  unchanged parent compound in urine: not detectable
8 hr time point, small radioactive peak at 30 min post-IV-injection
  unchanged parent compound and M2768 together in pooled plasma: still detectable
Male BDC and intact rats, single IV 20 and 200 mg/kg
  route of elimination of related radioactivity: urinary excretion was major route of elimination
rat, in vivo, intact rats, IV 20 and 200 mg/kg, read-out: plasma elimination half-lives for total radioactivity
  half-life: ≥ 40 h
Single IV 20 or 200 mg/kg, mainly via urine
  dosed radioactivity recovered within 24 hr post-dose: > 70 % of the dose

— patent US20240010681A1, “PEPTIDES AND METHODS OF USE” (REALTA LIFE SCIENCES, INC., priority 2020, published 2024)
